Source: ChEMBL document CHEMBL1125065, “Synthesis and anti-HIV activity of carbocyclic 2',3'-didehydro-2',3'-dideoxy 2,6-disubstituted purine nucleosides” (J Med Chem, 1990)
Values after ≈ are worked out from the molar mass of the structure shown.

Tests used:
P388 = experiment: Inhibitory concentration of compound for P-388 Leukemia cell culture; format: functional; details: Mus musculus, read-out: ED50 (the source's name)
MT2 [1] = experiment: Inhibitory concentration that reduces formazan production in uninfected MT-2 cells.; details: Homo sapiens
[2] = Therapeutic index for the compound was determined (IC50/EC50); details: read-out: TI
MT2 [3] = experiment: Effective concentration that increases formazan production in infected MT-2 cells; format: functional, cell-based; details: Homo sapiens
CCRF-CEM [4] = experiment: Percent reduction in p24 gag expression in CEM cells; format: functional, Homo sapiens
CCRF-CEM [5] = experiment: Inhibitory effect against synthesis of p24 gag protein in CEM cells.; format: functional, Homo sapiens

Row | EC50 (P388) | EC50 (MT2 [3]) | Compound | IC50 (MT2 [1]) | selectivity ratio [2] | Reduction (CCRF-CEM [4]) | p24 synthesis (CCRF-CEM [5])
1 | > 100 µg/mL | 4.7 µg/mL (≈ 19.1 µM) | Nc1nc(N)c2ncn(C3C=CC(CO)C3)c2n1 (stereo not given) | > 125 µg/mL | > 26.6 |  | 
2 | > 100 µg/mL |  | Nc1nc(N)c2nnn(C3CCC(CO)C3)c2n1 (stereo not given) |  |  |  | 
3 | 80 µg/mL (≈ 322 µM) | 16.7 µg/mL (≈ 67.3 µM) | Nc1nc(N)c2ncn(C3CCC(CO)C3)c2n1 (stereo not given) | > 100 µg/mL | > 5.9 |  | 
4 |  |  | Cc1cn([C@H]2C[C@H](N=[N+]=[N-])[C@@H](CO)O2)c(=O)[nH]c1=O [ZIDOVUDINE] |  |  | >99.96% | 32 ng/mL
5 | 75 µg/mL (≈ 282 µM) | 0.4 µg/mL (≈ 1.51 µM) | Nc1nc(Cl)c2ncn(C3C=CC(CO)C3)c2n1 (stereo not given) | 6.97 µg/mL (≈ 26.2 µM) | 17.3 |  | 
6 | > 100 µg/mL | > 100 µg/mL | Nc1nc(Cl)c2ncn(C3CCC(CO)C3)c2n1 (stereo not given) | > 100 µg/mL |  |  | 
7 | 18 µg/mL (≈ 67 µM) |  | Nc1nc(Cl)c2nnn(C3CCC(CO)C3)c2n1 (stereo not given) |  |  |  | 
8 | 1 µg/mL (≈ 3.75 µM) |  | Nc1nc(Cl)c2nnn(C3C=CC(CO)C3)c2n1 (stereo not given) |  |  |  | 
9 | > 100 µg/mL |  | Nc1nc(N)c2nnn(C3C=CC(CO)C3)c2n1 (stereo not given) |  |  |  | 
10 | 51 µg/mL (≈ 204 µM) |  | Nc1nc(O)c2nnn(C3CCC(CO)C3)c2n1 (stereo not given) |  |  |  | 
11 | > 100 µg/mL | > 100 µg/mL | Nc1nc(O)c2ncn(C3CCC(CO)C3)c2n1 (stereo not given) | > 100 µg/mL |  |  | 
12 | > 100 µg/mL | 0.19 µg/mL (≈ 0.768 µM) | Nc1nc2c(ncn2[C@H]2C=C[C@@H](CO)C2)c(=O)[nH]1 [CARBOVIR] | 41.8 µg/mL (≈ 169 µM) | 220 | >99.97% | 28 ng/mL
13 |  | 0.29 µg/mL (≈ 1.37 µM) | Nc1ccn([C@H]2CC[C@@H](CO)O2)c(=O)n1 [ZALCITABINE] | 44 µg/mL (≈ 208 µM) | 152 |  | 
14 | 4.5 µg/mL (≈ 18.1 µM) |  | Nc1nc(O)c2nnn(C3C=CC(CO)C3)c2n1 (stereo not given) |  |  |  | 
